Source: publication PMC10382351, “In vivo evaluation of a novel ^18F-labeled PET radioligand for translocator protein 18 kDa (TSPO) in monkey brain” (European Journal of Nuclear Medicine and Molecular Imaging, 2023)
Several values for one entry are separate records, joined by “and”; a condition that tells them apart may be missing. Identical values can stand only once. Entries after “also recorded” stand apart in the source; their conditions may differ.

System: 18 kDa translocator protein (TSPO)
Experiment: PET imaging of [^18F]SF51 in rhesus monkey brain with kinetic analysis (2TCM, Logan plot, Lassen plot)
Assay type: in vivo
Details: for Estimated K1: three rhesus monkeys; for VT/fP using Logan plot: n=3
Protocol: Electrocardiogram, body temperature, heart rate, and respiratory rate measures were monitored throughout the scan.
Brain PET imaging was performed using a microPET Focus 220 camera (Siemens Medical Solution; Knoxville, TN). […] For baseline experiments, 20 mL of a vehicle containing 20% (2-hydroxypropyl)-β-cyclodextrin and two equivalents of HCl were injected intravenously 10 min before radioligand administration. For the blocked experiment, PK11195 was dissolved in vehicle and then injected intravenously (5 mg/kg) 10 min before radioligand injection for all three monkeys. One of the three monkeys underwent an additional blocked scan with 5 mg/kg of PBR28, performed using a MultiScan™ LFER 150 PET/CT (Mediso USA, LLC; Arlington, VA). The interval between baseline and blocked imaging sessions was at least three weeks in order to allow the monkey to recover from arterial blood sampling. Focus 220 PET images were histogrammed into 30 time frames (6 × 30, 3 × 60, 2 × 120, 4 × 300, and 15 × 600 s) and reconstructed using Fourier rebinning plus a two-dimensional filtered back-projection with scatter and attenuation correction. MultiScan LFER PET images were reconstructed with 3D-OSEM with two iterations and nine subsets and were corrected for scatter and attenuation.
PET images were co-registered to a standardized monkey MRI template using PMOD software (PMOD version 4.1, PMOD Technologies Ltd.; Zurich, Switzerland). Thirty-three predefined regions of interest (ROIs) from a monkey brain template were applied to the co-registered PET images to obtain regional time-activity curves (Supplementary Table S2). Brain uptake was expressed as standardized uptake value (SUV), which normalizes for injected radioactivity and body weight. Using the brain time-activity curves and the radiometabolite-corrected arterial input function, the total VT was derived from a two-tissue compartment model (2TCM). Receptor occupancy by PK11195 and nondisplaceable distribution volume (VND/fP) of [^18F]SF51 were determined by an axes-transformed Lassen plot, where the y-axis reports the difference in VT between the baseline and the blocked scans, corrected by the respective fp values, and the x-axis reports the values at baseline (VTbase/fPbase).

- VT/fP (Baseline, Amygdala, 2TCM, n = 3): 242 mL·cm^−3
- Estimated K1 (Baseline, Amygdala, 2TCM): 0.29 mL·cm^-3·min^-1
- VT/fP using Logan plot (Baseline, Amygdala): 229 mL·cm^-3
- VT/fP (Baseline, Amygdala, one monkey (PBR28 experiment)): 284 mL·cm^-3
- VT/fP (Baseline, Cerebellum, 2TCM, n = 3): 179 mL·cm^−3
- Estimated K1 (Baseline, Cerebellum, 2TCM): 0.34 mL·cm^-3·min^-1
- VT/fP using Logan plot (Baseline, Cerebellum): 172 mL·cm^-3
- VT/fP (Baseline, Cerebellum, one monkey (PBR28 experiment)): 208 mL·cm^-3
- VT/fP (Baseline, Cingulate Cortex, 2TCM, n = 3): 218 mL·cm^−3
- Estimated K1 (Baseline, Cingulate Cortex, 2TCM): 0.30 mL·cm^-3·min^-1
- VT/fP using Logan plot (Baseline, Cingulate Cortex): 208 mL·cm^-3
- VT/fP (Baseline, Cingulate Cortex, one monkey (PBR28 experiment)): 260 mL·cm^-3
- VT/fP (Baseline, Frontal Cortex, 2TCM, n = 3): 201 mL·cm^−3
- Estimated K1 (Baseline, Frontal Cortex, 2TCM): 0.30 mL·cm^-3·min^-1
- VT/fP using Logan plot (Baseline, Frontal Cortex): 192 mL·cm^-3
- VT/fP (Baseline, Frontal Cortex, one monkey (PBR28 experiment)): 241 mL·cm^-3
- VT/fP (Baseline, Hippocampus, 2TCM, n = 3): 220 mL·cm^−3
- Estimated K1 (Baseline, Hippocampus, 2TCM): 0.33 mL·cm^-3·min^-1
- VT/fP using Logan plot (Baseline, Hippocampus): 211 mL·cm^-3
- VT/fP (Baseline, Hippocampus, one monkey (PBR28 experiment)): 253 mL·cm^-3
- VT/fP (Baseline, Insula, 2TCM, n = 3): 224 mL·cm^−3
- Estimated K1 (Baseline, Insula, 2TCM): 0.35 mL·cm^-3·min^-1
- VT/fP using Logan plot (Baseline, Insula): 214 mL·cm^-3
- VT/fP (Baseline, Insula, one monkey (PBR28 experiment)): 264 mL·cm^-3
- VT/fP (Baseline, Occipital Cortex, 2TCM, n = 3): 183 mL·cm^−3
- Estimated K1 (Baseline, Occipital Cortex, 2TCM): 0.31 mL·cm^-3·min^-1
- VT/fP using Logan plot (Baseline, Occipital Cortex): 175 mL·cm^-3
- VT/fP (Baseline, Occipital Cortex, one monkey (PBR28 experiment)): 217 mL·cm^-3
- VT/fP (Baseline, Parietal Cortex, 2TCM, n = 3): 202 mL·cm^−3
- Estimated K1 (Baseline, Parietal Cortex, 2TCM): 0.30 mL·cm^-3·min^-1
- VT/fP using Logan plot (Baseline, Parietal Cortex): 193 mL·cm^-3
- VT/fP (Baseline, Parietal Cortex, one monkey (PBR28 experiment)): 246 mL·cm^-3
- VT/fP (Baseline, Striatum, 2TCM, n = 3): 225 mL·cm^−3
- Estimated K1 (Baseline, Striatum, 2TCM): 0.38 mL·cm^-3·min^-1
- VT/fP using Logan plot (Baseline, Striatum): 215 mL·cm^-3
- VT/fP (Baseline, Striatum, one monkey (PBR28 experiment)): 266 mL·cm^-3
- VT/fP (Baseline, Temporal Cortex, 2TCM, n = 3): 209 mL·cm^−3
- Estimated K1 (Baseline, Temporal Cortex, 2TCM): 0.30 mL·cm^-3·min^-1
- VT/fP using Logan plot (Baseline, Temporal Cortex): 201 mL·cm^-3
- VT/fP (Baseline, Temporal Cortex, one monkey (PBR28 experiment)): 241 mL·cm^-3
- VT/fP (Baseline, Thalamus, 2TCM, n = 3): 218 mL·cm^−3
- Estimated K1 (Baseline, Thalamus, 2TCM): 0.35 mL·cm^-3·min^-1
- VT/fP using Logan plot (Baseline, Thalamus): 208 mL·cm^-3
- VT/fP (Baseline, Thalamus, one monkey (PBR28 experiment)): 259 mL·cm^-3
- VT/fP (Baseline, Whole Brain, 2TCM, n = 3): 203 ± 15 mL·cm^−3 and 203 mL·cm^−3
- Estimated K1 (Baseline, Whole Brain, 2TCM): 0.31 mL·cm^-3·min^-1
- VT/fP using Logan plot (Baseline, Whole Brain): 194 mL·cm^-3
- VT/fP (Baseline, Whole Brain, one monkey (PBR28 experiment)): 240 mL·cm^-3
- VT/fP (Blocked (PK11195 5 mg/kg i.v.), Amygdala, 2TCM, n = 3): 23 mL·cm^−3
- VT/fP (Blocked (PK11195 5 mg/kg i.v.), Cerebellum, 2TCM, n = 3): 26 mL·cm^−3
- VT/fP (Blocked (PK11195 5 mg/kg i.v.), Cingulate Cortex, 2TCM, n = 3): 25 mL·cm^−3
- VT/fP (Blocked (PK11195 5 mg/kg i.v.), Frontal Cortex, 2TCM, n = 3): 26 mL·cm^−3
- VT/fP (Blocked (PK11195 5 mg/kg i.v.), Hippocampus, 2TCM, n = 3): 21 mL·cm^−3
- VT/fP (Blocked (PK11195 5 mg/kg i.v.), Insula, 2TCM, n = 3): 23 mL·cm^−3
- VT/fP (Blocked (PK11195 5 mg/kg i.v.), Occipital Cortex, 2TCM, n = 3): 23 mL·cm^−3
- VT/fP (Blocked (PK11195 5 mg/kg i.v.), Parietal Cortex, 2TCM, n = 3): 24 mL·cm^−3
- VT/fP (Blocked (PK11195 5 mg/kg i.v.), Striatum, 2TCM, n = 3): 26 mL·cm^−3
- VT/fP (Blocked (PK11195 5 mg/kg i.v.), Temporal Cortex, 2TCM, n = 3): 22 mL·cm^−3
- VT/fP (Blocked (PK11195 5 mg/kg i.v.), Thalamus, 2TCM, n = 3): 27 mL·cm^−3
- VT/fP (Blocked (PK11195 5 mg/kg i.v.), Whole Brain, 2TCM, n = 3): 24 mL·cm^−3
- Estimated K1 (Blocked (PK11195), Amygdala, 2TCM): 0.38 mL·cm^-3·min^-1
- VT/fP using Logan plot (Blocked (PK11195), Amygdala): 23 mL·cm^-3
- Estimated K1 (Blocked (PK11195), Cerebellum, 2TCM): 0.62 mL·cm^-3·min^-1
- VT/fP using Logan plot (Blocked (PK11195), Cerebellum): 25 mL·cm^-3
- Estimated K1 (Blocked (PK11195), Cingulate Cortex, 2TCM): 0.34 mL·cm^-3·min^-1
- VT/fP using Logan plot (Blocked (PK11195), Cingulate Cortex): 24 mL·cm^-3
- Estimated K1 (Blocked (PK11195), Frontal Cortex, 2TCM): 0.36 mL·cm^-3·min^-1
- VT/fP using Logan plot (Blocked (PK11195), Frontal Cortex): 25 mL·cm^-3
- Estimated K1 (Blocked (PK11195), Hippocampus, 2TCM): 0.48 mL·cm^-3·min^-1
- VT/fP using Logan plot (Blocked (PK11195), Hippocampus): 21 mL·cm^-3
- Estimated K1 (Blocked (PK11195), Insula, 2TCM): 0.37 mL·cm^-3·min^-1
- VT/fP using Logan plot (Blocked (PK11195), Insula): 23 mL·cm^-3
- Estimated K1 (Blocked (PK11195), Occipital Cortex, 2TCM): 0.40 mL·cm^-3·min^-1
- VT/fP using Logan plot (Blocked (PK11195), Occipital Cortex): 22 mL·cm^-3
- Estimated K1 (Blocked (PK11195), Parietal Cortex, 2TCM): 0.35 mL·cm^-3·min^-1
- VT/fP using Logan plot (Blocked (PK11195), Parietal Cortex): 23 mL·cm^-3
- Estimated K1 (Blocked (PK11195), Striatum, 2TCM): 0.65 mL·cm^-3·min^-1
- VT/fP using Logan plot (Blocked (PK11195), Striatum): 25 mL·cm^-3
- Estimated K1 (Blocked (PK11195), Temporal Cortex, 2TCM): 0.36 mL·cm^-3·min^-1
- VT/fP using Logan plot (Blocked (PK11195), Temporal Cortex): 22 mL·cm^-3
- Estimated K1 (Blocked (PK11195), Thalamus, 2TCM): 0.50 mL·cm^-3·min^-1
- VT/fP using Logan plot (Blocked (PK11195), Thalamus): 26 mL·cm^-3
- Estimated K1 (Blocked (PK11195), Whole Brain, 2TCM): 0.41 mL·cm^-3·min^-1
- VT/fP using Logan plot (Blocked (PK11195), Whole Brain): 24 mL·cm^-3
- VT/fP (Blocked, PBR28 pre-blockade (5 mg/kg), Amygdala, one monkey): 9 mL·cm^-3
- VT/fP (Blocked, PBR28 pre-blockade (5 mg/kg), Cerebellum, one monkey): 10 mL·cm^-3
- VT/fP (Blocked, PBR28 pre-blockade (5 mg/kg), Cingulate Cortex, one monkey): 10 mL·cm^-3
- VT/fP (Blocked, PBR28 pre-blockade (5 mg/kg), Frontal Cortex, one monkey): 10 mL·cm^-3
- VT/fP (Blocked, PBR28 pre-blockade (5 mg/kg), Hippocampus, one monkey): 9 mL·cm^-3
- VT/fP (Blocked, PBR28 pre-blockade (5 mg/kg), Insula, one monkey): 10 mL·cm^-3
- VT/fP (Blocked, PBR28 pre-blockade (5 mg/kg), Occipital Cortex, one monkey): 10 mL·cm^-3
- VT/fP (Blocked, PBR28 pre-blockade (5 mg/kg), Parietal Cortex, one monkey): 10 mL·cm^-3
- VT/fP (Blocked, PBR28 pre-blockade (5 mg/kg), Striatum, one monkey): 10 mL·cm^-3
- VT/fP (Blocked, PBR28 pre-blockade (5 mg/kg), Temporal Cortex, one monkey): 9 mL·cm^-3
- VT/fP (Blocked, PBR28 pre-blockade (5 mg/kg), Thalamus, one monkey): 12 mL·cm^-3
- VT/fP (Blocked, PBR28 pre-blockade (5 mg/kg), Whole Brain, one monkey): 10 mL·cm^-3
- VND/fP (x-intercept of the regression lines) (Lassen plot, monkey brain, n = 3): 27 ± 11 mL· cm^−3
- Increase of K1 in blocked scans compared to baseline scans (all regions, PK11195): about 30%
- x-intercept of Lassen plot (VND/fP) (mean ± SD, n = 3): 27 ± 11
- Mean SUV peak in brain after pre-blockade (monkey brain, after 5 mg/kg PK11195, n = 3): 3.0 ± 0.5 SUV
- Brain activity relative to the peak (monkey brain, baseline, at 180 min): 30 % of the peak
- Brain activity relative to the peak (monkey brain, baseline, by 110 min): 50 % of the peak
- Peak concentration of brain radioactivity (mean SUV peak) (monkey whole brain, baseline, n = 3): 2.0 SUV and 2.0 ± 0.1 SUV
SMILES: CC[C@@H](C)N(C)C(=O)c1nc(-c2cccc([18F])c2)c2ccccc2n1 [[^18F]SF51]
- Decrease of VT/fP (binding displaced) after blockade with PK11195 (monkey brain, PK11195 5 mg/kg i.v.): ~ 90%
- Uptake in the skull (monkey, baseline, blocked by PK11195 and PBR28): No significant uptake; also recorded: low uptake
- BPND of whole brain (monkey, ratio of specific binding to nondisplaceable uptake, n = 3): 7.6 ± 4.3 and 7.6
